Laboratory results: patent publication US11524966B1 (Valo Early Discovery, Inc., priority 2017, dated 2022)

Target: T1, USP28 (His-tagged USP28-FL-mammalian) (Homo sapiens, UniProt Q96RU2)
T1 construct: Expression of USP28 (1-1077)-TEV-6*His (pTT5 vector); made in house; host or cells: Expi293f cells (pTT5 vector)
T1 sequence (Q96RU2 1-1077): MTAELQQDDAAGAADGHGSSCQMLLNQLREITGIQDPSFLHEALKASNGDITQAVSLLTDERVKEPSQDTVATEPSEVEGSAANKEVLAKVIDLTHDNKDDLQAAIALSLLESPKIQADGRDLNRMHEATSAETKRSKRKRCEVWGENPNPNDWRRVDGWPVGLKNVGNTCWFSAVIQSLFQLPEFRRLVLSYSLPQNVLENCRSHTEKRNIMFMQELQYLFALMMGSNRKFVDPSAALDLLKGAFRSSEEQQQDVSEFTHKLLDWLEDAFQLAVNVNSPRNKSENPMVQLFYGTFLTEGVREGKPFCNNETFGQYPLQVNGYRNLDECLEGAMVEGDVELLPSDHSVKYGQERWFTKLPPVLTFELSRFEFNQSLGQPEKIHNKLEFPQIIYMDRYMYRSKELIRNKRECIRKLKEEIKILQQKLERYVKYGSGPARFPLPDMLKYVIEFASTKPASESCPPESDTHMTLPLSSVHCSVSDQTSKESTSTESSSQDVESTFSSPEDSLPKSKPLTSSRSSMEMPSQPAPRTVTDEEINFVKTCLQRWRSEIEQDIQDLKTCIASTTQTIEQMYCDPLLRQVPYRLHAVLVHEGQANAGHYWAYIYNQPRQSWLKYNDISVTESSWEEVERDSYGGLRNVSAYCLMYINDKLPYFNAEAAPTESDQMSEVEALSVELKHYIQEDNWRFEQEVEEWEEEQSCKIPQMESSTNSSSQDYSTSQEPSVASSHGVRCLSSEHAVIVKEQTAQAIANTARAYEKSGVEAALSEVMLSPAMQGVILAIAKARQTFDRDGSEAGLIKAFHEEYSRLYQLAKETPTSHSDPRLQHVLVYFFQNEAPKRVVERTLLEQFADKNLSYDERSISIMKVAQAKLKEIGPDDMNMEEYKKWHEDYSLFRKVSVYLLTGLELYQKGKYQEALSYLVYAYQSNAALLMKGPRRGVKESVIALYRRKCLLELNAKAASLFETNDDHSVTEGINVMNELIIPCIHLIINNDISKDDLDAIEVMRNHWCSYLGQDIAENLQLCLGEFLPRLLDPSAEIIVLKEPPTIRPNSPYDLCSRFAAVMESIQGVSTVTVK
Assay: Ubiquitin-Rhodamine 110 Assay for USP28 Activity, Example A-1(a)
Assay type: biochemical
Details: Ubiquitin-Rhodamine 110 assay, Example A-1(a); read-out: USP28 A-1(a) IC50 range
Summary of the method: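 Full-length His-tagged human USP28 (1-1077, Expi293f-expressed), […], with 25 nM Ub-Rh110 (<<Km) in pH 8.0 Tris buffer with BME, BGG, Triton X-100. 10-point dilutions (25 μM-1.3 nM), 45 min at room temperature, citric acid stop, fluorescence 485/535 nm; IC50 by 4-parameter fit.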

SMILES	IC50
Cc1ccc2c(N)c(C(=O)N[C@H]3COc4cc(N5CCC[C@](C)(O)C5)ccc4C3)sc2n1 [Example 7-2]	0.001 to 0.05 µM
Cc1ccc2c(N)c(C(=O)N[C@H]3COc4cc(N5CCC[C@@](C)(O)C5)ccc4C3)sc2n1 [Example 7-3, 3-amino-N-((R)-7-((R)-3-hydroxy-3-methylpiperidin-l-yl)chroman-3-yl)-6-methylthieno[2,3-b]pyridine-2-carboxamide]	0.001 to 0.05 µM
Cc1ccc2c(N)c(C(=O)N[C@H]3CCc4nc(N5C[C@H](N)[C@H](C(F)F)C5)ccc4C3)sc2n1 [Example 345, 3-amino-N-[(6S)-2-[(3R,4R)-3-amino-4-(difluoromethyl)pyrrolidin-1-yl]-5,6,7,8-tetrahydroquinolin-6-yl]-6-methylthieno[2,3-b]pyridine-2-carboxamide]	0.05 to 0.2 µM
Cc1ccc2c(N)c(C(=O)N[C@H]3CCc4nc(N5C[C@@H](N)[C@@H](C(F)F)C5)ccc4C3)sc2n1 [Example 346, 3-amino-N-[(6S)-2-[(3S,4S)-3-amino-4-(difluoromethyl)pyrrolidin-1-yl]-5,6,7,8-tetrahydroquinolin-6-yl]-6-methylthieno[2,3-b]pyridine-2-carboxamide]	0.05 to 0.2 µM
Cc1ccc2c(N)c(C(=O)N[C@H]3CCc4nc(N5C[C@H](C(F)F)[C@@H](N)C5)ccc4C3)sc2n1 [Example 347, 3-amino-N-[(6S)-2-[(3R,4S)-3-amino-4-(difluoromethyl)pyrrolidin-1-yl]-5,6,7,8-tetrahydroquinolin-6-yl]-6-methylthieno[2,3-b]pyridine-2-carboxamide]	0.05 to 0.2 µM
COC[C@@H]1CN(c2ccc3c(n2)OC[C@H](NC(=O)c2sc4nc(C)cc(C)c4c2N)C3)C[C@@H]1N [Example 348, 3-amino-N-[(3R)-7-[(3R,4R)-3-amino-4-(methoxymethyl)pyrrolidin-1-yl]-2H,3H,4H-pyrano[2,3-b]pyridin-3-yl]-4,6-dimethylthieno[2,3-b]pyridine-2-carboxamide]	0.05 to 0.2 µM
COC[C@H]1CN(c2ccc3c(n2)OC[C@H](NC(=O)c2sc4nc(C)cc(C)c4c2N)C3)C[C@H]1N [Example 349, 3-amino-N-[(3R)-7-[(3S,4S)-3-amino-4-(methoxymethyl)pyrrolidin-1-yl]-2H,3H,4H-pyrano[2,3-b]pyridin-3-yl]-4,6-dimethylthieno[2,3-b]pyridine-2-carboxamide]	0.05 to 0.2 µM
CN[C@H]1CN(c2ccc3c(c2)OC[C@H](NC(=O)c2sc4nc(C)ccc4c2N)C3)C[C@@H]1O [Example 350, 3-amino-N-[(3R)-7-[(3S,4S)-3-hydroxy-4-(methylamino)pyrrolidin-1-yl]-3,4-dihydro-2H-1-benzopyran-3-yl]-6-methylthieno[2,3-b]pyridine-2-carboxamide]	0.05 to 0.2 µM
CCn1ccc2cc(C(=O)N[C@H]3CCc4nc(N5C[C@H](OC)[C@@H](N)C5)ccc4C3)cnc21 [Example 353, N-[(6S)-2-[(3S,4S)-3-amino-4-methoxypyrrolidin-1-yl]-5,6,7,8-tetrahydroquinolin-6-yl]-1-ethyl-1H-pyrrolo[2,3-b]pyridine-5-carboxamide]	0.2 to 2 µM
Cc1cc(C)c2c(N)c(C(=O)N[C@H]3CCc4nc(N5CC6CCC(C5)N6)ccc4C3)sc2n1 [Example 354, 3-amino-N-[(6S)-2-{3,8-diazabicyclo[3.2.1]octan-3-yl}-5,6,7,8-tetrahydroquinolin-6-yl]-4,6-dimethylthieno[2,3-b]pyridine-2-carboxamide]	0.001 to 0.05 µM
CCn1cc(Cl)c2cc(C(=O)N[C@H]3COc4c(F)c(N5CC6CCC(C5)N6)cc(F)c4C3)nnc21 [Example 355, 5-chloro-N-[(3R)-7-{3,8-diazabicyclo[3.2.1]octan-3-yl}-5,8-difluoro-3,4-dihydro-2H-1-benzopyran-3-yl]-7-ethyl-7H-pyrrolo[2,3-c]pyridazine-3-carboxamide]	0.05 to 0.2 µM
CCn1cc(Cl)c2cc(C(=O)N[C@H]3COc4c(C#N)c(N5CC6CCC(C5)N6)cc(F)c4C3)nnc21 [Example 356, 5-chloro-N-[(3R)-8-cyano-7-{3,8-diazabicyclo[3.2.1]octan-3-yl}-5-fluoro-3,4-dihydro-2H-1-benzopyran-3-yl]-7-ethyl-7H-pyrrolo[2,3-c]pyridazine-3-carboxamide]	0.2 to 2 µM
Cc1ccc2c(N)c(C(=O)N[C@H]3CCc4nc(N5C[C@H](N)[C@H](OC(C)(F)F)C5)ccc4C3)sc2n1 [Example 357, 3-amino-N-[(6S)-2-[(3S,4R)-3-amino-4-(1,1-difluoroethoxy)pyrrolidin-1-yl]-5,6,7,8-tetrahydroquinolin-6-yl]-6-methylthieno[2,3-b]pyridine-2-carboxamide]	0.05 to 0.2 µM
Cc1ccc2c(N)c(C(=O)N[C@H]3CCc4nc(N5C[C@@H](N)[C@@H](OC(C)(F)F)C5)ccc4C3)sc2n1 [Example 358, 3-amino-N-[(6S)-2-[(3R,4S)-3-amino-4-(1,1-difluoroethoxy)pyrrolidin-1-yl]-5,6,7,8-tetrahydroquinolin-6-yl]-6-methylthieno[2,3-b]pyridine-2-carboxamide]	0.2 to 2 µM
Cc1ccc2c(N)c(C(=O)N[C@H]3CCc4nc(N5C[C@H](N)[C@@H](C(F)(F)F)C5)ccc4C3)sc2n1 [Example 363, 3-amino-N-[(6S)-2-[(3R,4S)-3-amino-4-(trifluoromethyl)pyrrolidin-1-yl]-5,6,7,8-tetrahydroquinolin-6-yl]-6-methylthieno[2,3-b]pyridine-2-carboxamide]	0.05 to 0.2 µM
Cc1ccc2c(N)c(C(=O)N[C@H]3CCc4nc(N5C[C@@H](N)[C@H](C(F)(F)F)C5)ccc4C3)sc2n1 [Example 364, 3-amino-N-[(6S)-2-[(3S,4R)-3-amino-4-(trifluoromethyl)pyrrolidin-1-yl]-5,6,7,8-tetrahydroquinolin-6-yl]-6-methylthieno[2,3-b]pyridine-2-carboxamide]	0.05 to 0.2 µM
Cc1cnc2c(N)c(C(=O)N[C@H]3CCc4nc(N5C[C@H](N)C6(COC6)C5)ccc4C3)sc2n1 [Example 365, 7-amino-N-[(6S)-2-[(8R)-8-amino-2-oxa-6-azaspiro[3.4]octan-6-yl]-5,6,7,8-tetrahydroquinolin-6-yl]-3-methylthieno[2,3-b]pyrazine-6-carboxamide]	0.001 to 0.05 µM
Cc1cnc2c(N)c(C(=O)N[C@H]3CCc4nc(N5C[C@@H](N)C6(COC6)C5)ccc4C3)sc2n1 [Example 366, 7-amino-N-[(6S)-2-[(8S)-8-amino-2-oxa-6-azaspiro[3.4]octan-6-yl]-5,6,7,8-tetrahydroquinolin-6-yl]-3-methylthieno[2,3-b]pyrazine-6-carboxamide]	0.2 to 2 µM
Cc1ccc2c(N)c(C(=O)N[C@H]3COc4cc(N5CC[C@H](N)C5)ccc4C3)sc2n1 [Example 369, 3-amino-N-[(3R)-7-[(3S)-3-aminopyrrolidin-1-yl]-3,4-dihydro-2H-1-benzopyran-3-yl]-6-methylthieno[2,3-b]pyridine-2-carboxamide]	0.001 to 0.05 µM
Cc1ccc2c(N)c(C(=O)N[C@H]3CCc4nc(N5C[C@H](N)[C@]6(CCCO6)C5)ccc4C3)sc2n1 [Example 390, 3-amino-N-[(6S)-2-[(5S,9S)-9-amino-1-oxa-7-azaspiro[4.4]nonan-7-yl]-5,6,7,8-tetrahydroquinolin-6-yl]-6-methylthieno[2,3-b]pyridine-2-carboxamide]	0.2 to 2 µM
Cc1ccc2c(N)c(C(=O)N[C@H]3CCc4nc(N5C[C@@H](N)[C@]6(CCCO6)C5)ccc4C3)sc2n1 [Example 391, 3-amino-N-[(6S)-2-[(5S,9R)-9-amino-1-oxa-7-azaspiro[4.4]nonan-7-yl]-5,6,7,8-tetrahydroquinolin-6-yl]-6-methylthieno[2,3-b]pyridine-2-carboxamide]	0.05 to 0.2 µM
Cc1ccc2c(N)c(C(=O)N[C@H]3CCc4nc(N5C[C@@H](N)[C@@]6(CCCO6)C5)ccc4C3)sc2n1 [Example 392, 3-amino-N-[(6S)-2-[(5R,9R)-9-amino-1-oxa-7-azaspiro[4.4]nonan-7-yl]-5,6,7,8-tetrahydroquinolin-6-yl]-6-methylthieno[2,3-b]pyridine-2-carboxamide]	0.2 to 2 µM
